US20080193563A1, “HARNESSING WNT SIGNALING TO RESTRICT HIV REPLICATION” (priority 2006, published 2008)

How the values were obtained:
HIV-Bal in HFA = experiment: Cytokine pre-stimulation and HIV-Bal replication in human fetal astrocytes, p24 ELISA; assay type: cell-based; conditions: 24 h pre-stimulation, p24 day 7
Description: U87MG (A) and HFA (B) were pre-stimulated with increasing doses of either GM-CSF or IFNγ for 24 h followed by HIV-BAL infection for 24 hours. HIV replication was determined by measuring HIV p24 levels by ELISA seven days post-infection. The dotted line represents basal level of HIV infection of astrocytes without cytokine pre-treatment. Data is representative of three experiments performed in quadruplicate. Error bars represent standard deviations of the mean. Asterisks denote significant values (p<0.05) in comparison to untreated cultures as evaluated by analysis of variance.
To determine if pre-stimulation of astrocytes primes astrocytes, for productive HIV infection, U87MG and HFA were pre-treated for 24 hours with TNFγ, GM-CSF, or IFNγ at various concentrations (0-1000 ng/ml) then infected with HIV-Bal at 10 ng of HIV p24/1×10^6 cells for 24 hours. The cells were then washed extensively or trypsinized to remove bound virus and propagated in the presence of the respective cytokine concentration. HIV infection was monitored by p24 ELISA seven days post-infection. […]
IFN-γ Treatment and HIV Infection. […] HIV infection was monitored at day 7 postinfection by measuring p24 levels by conventional enzyme-linked immunosorbent assay (ELISA) (National Cancer Institute, Frederick, Md.).

[1] = test system: IFNγ, GM-CSF and TNFγ receptors on U87MG; experiment: Cytokine receptor expression on U87MG by flow cytometry; assay type: cell-based, human; conditions: 24-hour treatment
Description: U87MG (A) or HFA (B) were left untreated or treated with GM-CSF (50 ng/ml), IFNγ100 ng/ml) or TNFγ100 ng/ml). […] Percent expression of GM-CSF receptor (R), IFNγR, and TNFγR was measured 24 hours post-stimulation by flow cytometry. Data is representative of three experiments. Error bars represent standard deviations of the mean.
Prior to evaluating if GM-CSF, IFNγ, and TNFγ can augment HIV replication of astrocytes, a question was whether U87MG and HFA express the respective cytokine receptors. U87MG and HFA were treated with or without the respective cytokine for 24 hours and cytokine receptor expression was evaluated by flow cytometry. Approximately 35% of U87MG expressed the IFNγ receptor and a low level of GM-CSF and TNFγ receptors (<8%; FIG. 3A). […] Untreated HFA expressed only low levels of IFNγ receptor (6%) and this expression was abrogated with IFNγ treatment. GM-CSF and TNFγ receptors were not expressed on HFA.

IFNγ: cytokine secreted by lymphocytes, activated microglia and astrocytes; used to prime astrocytes
Induction of HIV replication (HIV-Bal in HFA): 2 fold
Down-regulation of IFNγ receptor expression [1]: 2 fold
IFNγ receptor expression after treatment ([1]; untreated approximately 35%): approximately 15%
